Results from paper PMC2765246 (Journal of medicinal chemistry, 2008).

How the values were obtained:
[1] = tested on: Plasmodium falciparum; conditions: P. falciparum growth inhibition, cited from earlier work; for IC50: read-out: IC50 (cell)
[2] = molecular target: T1, P. vivax FPPS (farnesyl diphosphate synthase) (Plasmodium vivax, UniProt A5K4U6); assay: P. vivax FPPS inhibition, continuous spectrophotometric phosphate release assay; type: biochemical; conditions: pIC50 (enzyme)
T1 sequence (A5K4U6 1-375): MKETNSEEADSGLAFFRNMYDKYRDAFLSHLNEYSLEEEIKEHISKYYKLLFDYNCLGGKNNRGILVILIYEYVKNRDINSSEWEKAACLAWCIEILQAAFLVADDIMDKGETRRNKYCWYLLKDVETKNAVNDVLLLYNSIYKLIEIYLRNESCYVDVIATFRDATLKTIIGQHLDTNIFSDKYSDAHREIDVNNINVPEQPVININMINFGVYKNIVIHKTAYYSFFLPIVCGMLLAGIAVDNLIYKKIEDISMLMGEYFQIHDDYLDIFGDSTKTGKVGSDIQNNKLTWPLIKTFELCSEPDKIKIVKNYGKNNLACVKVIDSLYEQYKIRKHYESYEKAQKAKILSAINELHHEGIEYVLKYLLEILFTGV

[3] = FPPS from Plasmodium vivax, pIC50 = −log10 IC50

| SMILES | pIC50 (cell) [1] | IC50 [2, 3] [nM] | other results |
| --- | --- | --- | --- |
| CN(CCCCc1ccccc1)CCC(O)(P(=O)(O)O)P(=O)(O)O [Compound 3] | 5.5 | – | IC50 [1]: 2900 nM |
| O=P(O)(O)C(O)(Cc1cccc(Br)c1)P(=O)(O)O [Compound 11] | – | 794 | – |
| O=P(O)(O)C(O)(CSc1ccncc1)P(=O)(O)O [Compound 22] | 3.8 | – | – |
| CN(CCCc1ccccc1)CCC(O)(P(=O)(O)O)P(=O)(O)O [Compound 13] | 4.6 | – | IC50 [1]: 23000 nM |
| CN(Cc1ccccc1)C(P(=O)(O)O)P(=O)(O)O [Compound 24] | 3.7 | 794 | – |
| O=P(O)(O)C(O)(Cc1ccccc1)P(=O)(O)O [Compound 9] | 5.0 | – | – |
| Cc1ccc(C)c(COc2ccc(C)nc2NC(P(=O)(O)O)P(=O)(O)O)c1 [Compound 25] | 3.7 | – | – |
| O=P(O)(O)C(O)(Cc1cccc(C(F)(F)F)c1)P(=O)(O)O [Compound 5] | 5.4 | 631 | – |
| CCCCCCC(O)(P(=O)(O)O)P(=O)(O)O [Compound 1] | 5.9 | – | – |
| O=P(O)(O)C(O)(Cc1ccccn1)P(=O)(O)O [Compound 26] | 3.7 | – | IC50 [2]: 1000 nM |
| O=P(O)(O)C(O)(Cc1cccc(Cl)c1)P(=O)(O)O [Compound 6] | 5.4 | – | – |
| O=P(O)(O)C(O)(Cc1cccc(F)c1)P(=O)(O)O [Compound 7] | 5.2 | – | – |
| CCCCCCCCCC(O)(P(=O)(O)O)P(=O)(O)O [Compound 4] | – | 794 | – |
| O=P(O)(O)C(Nc1nccs1)P(=O)(O)O [Compound 19] | – | 794 | – |
| O=P(O)(O)C(Nc1ccc(Cl)cn1)P(=O)(O)O [Compound 8] | 5.0 | – | IC50 [1]: 11000 nM |
| CCCCCCCCCCCCCC(O)(P(=O)(O)O)P(=O)(O)O [Compound 2] | 5.7 | – | – |
